Reference: US12528790B2, “Amide derivative having antiviral activity” (Shionogi & Co., Ltd., priority 2020, dated 2026)

tested on: RSV A2 strain; test: In vitro CPE (CytoPathic Effect) inhibition effect evaluation test, RSV type A; assay type: cell-based; conditions: human respiratory syncytial virus, HEp-2
Procedure: The test sample is diluted in advance to an appropriate concentration with DMSO, and 3-fold series of serial dilutions were prepared on a 384-well plate (0.32 μL/well). HEp-2 cells (CCL-23; ATCC) adjusted at appropriate number (2.4×10^5 cells/mL) in 2% FBS E-MEM (prepared by adding kanamycin and FBS to Eagle's Minimum Essential Medium; Invitrogen) were added at 12.5 μL/well to the 384-well plate previously aliquoted with the test samples. The RSV A2 strain was diluted to an appropriate concentration in a culture medium and added to the 384-well plate containing the test sample at 12.5 μL/well. The culture medium was added additionally to the 384-well plate, and the test was started with 50 μL/well. Control wells were prepared with only virus-free culture medium. The plate was incubated in a 5% CO2 incubator at 37° C. for 4 days, and the plate was then placed at room temperature for 30 minutes. CellTiter-Glo (registered trademark) 2.0 assay (Promega) was added at 15 μL/well, mixed for 30 seconds, and the plate was placed for approximately 1 hour. The luminescent signal was then measured by EnVision (PerkinElmer). The inhibitory effect of the test agents on RSV-induced CPE was calculated as 0% and 100% inhibition rate for each sample concentration based on the level of remaining viable cells by CellTiter-Glo (registered trademark) 2.0, with the EC50 value for each compound calculated by nonlinear regression as the concentration that inhibits RSV-induced CPE by 50%. In the case of evaluation against RSV type B, RSV B (Wash/18537 strain) was infected in the same manner as the type A, cultured for 5 days, and quantitated in the same manner as for the A2 strain.

Row | Structure (SMILES) | EC50 [nM]
1 | Cc1ccc2c(c1)C1(CCN(CC(F)(F)F)CC1)CN2c1ncc(C(=O)NC2(C(=O)O)C3CC4CC(C3)CC2C4)c(C(F)(F)F)n1 (stereo not shown) [Compound I-136] | < 10
2 | CN1CCC2(CC1)CN(c1ncc(C(=O)NC3(C(=O)O)CCCCC3)c(C(F)(F)F)n1)c1ccc(OCCC3CCOCC3)cc12 [Compound I-62] | < 10

same assay, conditions: human respiratory syncytial virus; inhibitory effect against RSV type A (RSV A2 strain), HEp-2 cells, CPE inhibition; read-out: EC50

Row | Structure (SMILES) | EC50 [nM]
3 | O=C(NC1(C(=O)O)CCNCC1)c1cnc(N2CC3(CCOCC3)c3cc(OC4CCN(c5ncccn5)CC4)ccc32)nc1C(F)(F)F [Compound I-144] | 100 to 5000
4 | COC(=O)N1CCC(NC(=O)c2cnc(N3CC4(CCOCC4)c4cc(OC5CCN(c6ncccn6)CC5)ccc43)nc2C(F)(F)F)(C(=O)O)CC1 [Compound I-145] | 10 to 100
5 | Cc1nc(COc2ccc3c(c2)CCN3c2ncc(C(=O)NC3(C(=O)O)CCCCC3)c(C(F)(F)F)n2)cs1 [Compound I-28] | 10 to 100
6 | O=C(NC1(C(=O)O)C2CC3CC(C2)CC1C3)c1cnc(N2CC3(C=CCC3)c3cc(OC4CCN(c5ncccn5)CC4)ccc32)nc1C(F)(F)F (racemic) [Compound I-243] | < 10
7 | Cc1ccc2c(c1)C1(CCNCC1)CN2c1ncc(C(=O)NC2(C(=O)O)C3CC4CC(C3)CC2C4)c(C(F)(F)F)n1 (stereo not shown) [Compound I-134] | < 10
8 | O=C(NC1(C(=O)O)CCOCC1)c1cnc(N2CCc3cc(OC4CCN(c5ncccn5)CC4)ccc32)nc1C(F)(F)F [Compound I-47] | 10 to 100
9 | CC(C)(C)OC(=O)N1CCC(NC(=O)c2cnc(N3CC4(CCOCC4)c4cc(OC5CCN(c6ncccn6)CC5)ccc43)nc2C(F)(F)F)(C(=O)O)CC1 [Compound I-140] | 10 to 100
10 | COc1ccc2c(c1)C1(CCOCC1)CN2c1nc(CCCO)c(C(=O)NC2(C(=O)O)C3CC4CC(C3)CC2C4)c(C(F)(F)F)n1 (stereo not shown) [Compound I-187] | 10 to 100

Other lines, results leading:

Row | EC50 [nM] | Structure (SMILES)
11 | < 10 | O=C(NC1(C(=O)O)C2CC3CC(C2)CC1C3)c1cnc(-c2cn(C3CCOCC3)c3cc(OCCC4CCOCC4)ccc23)nc1C(F)(F)F (stereo not shown) [Compound I-131]
12 | < 10 | O=C(NC1(C(=O)O)C2CC3CC(C2)CC1C3)c1cnc(N2CC3(CCCCC3)c3cc(O[C@H]4CC[C@H](ON=C5CC(F)(F)C5)CC4)ccc32)nc1C(F)(F)F (stereo partly shown) [Compound I-460]
13 | < 10 | O=C(NC1(C(=O)O)C2CC3CC(C2)CC1C3)c1ccc(-c2cn(-c3cnccn3)c3cc(OC4CCN(c5ncccn5)CC4)ccc23)nc1C(F)(F)F (stereo not shown) [Compound I-198]
14 | < 10 | COCCn1cc(-c2ncc(C(=O)NC3(C(=O)O)C4CC5CC(C4)CC3C5)c(C(F)(F)F)n2)c2ccc(OCCC3CCOCC3)cc21 (stereo not shown) [Compound I-130]
15 | < 10 | COc1cc(COc2ccc3c(c2)CCN3c2ncc(C(=O)NC3(C(=O)O)CCCCC3)c(C(F)(F)F)n2)cc(OC)c1 [Compound I-29]
16 | < 10 | NC(=O)C1(NC(=O)c2ccc(N3CC4(CCOCC4)c4cc(OC5CCN(c6ncccn6)CC5)ccc43)nc2C(F)(F)F)C2CC3CC(C2)CC1C3 (stereo not shown) [Compound I-169]
17 | < 10 | O=C(NC1(C(=O)O)CCCCC1)c1cnc(N2CC3(CCOCC3)c3nc(OCCC4CCOCC4)ccc32)nc1C(F)(F)F [Compound I-106]
18 | < 10 | O=C(NC1(C(=O)O)CCCCC1)c1cnc(N2CCc3cc(OC4CCN(c5ccccn5)CC4)ccc32)nc1C(F)(F)F [Compound I-41]
19 | < 10 | O=C(NC1(C(=O)O)C2CC3CC(C2)CC1C3)c1cnc(N2CCc3cc(CN4CCN(c5ncccn5)CC4)ccc32)nc1C(F)(F)F (stereo not shown) [Compound I-213]
20 | < 10 | O=C(NC1(C(=O)O)C2CC3CC(C2)CC1C3)c1ccc(-c2cn(CC3CC3(F)F)c3cc(OC4CCN(c5ncccn5)CC4)ccc23)nc1C(F)(F)F (racemic) [Compound I-266]
21 | < 10 | O=C(NC1(C(=O)O)C2CC3CC(C2)CC1C3)c1cnc(-c2cn(C3CCC(F)(F)C3)c3cc(OC4CCN(c5ncc(F)cn5)CC4)ccc23)nc1C(F)(F)F (racemic) [Compound I-470]

same assay, conditions: inhibitory effect against RSV type A (RSV A2 strain), HEp-2 cells, CPE inhibition; read-out: EC50

Row | EC50 [nM] | Structure (SMILES)
22 | 10 to 100 | O=C(NC1(C(=O)O)C2CC3CC1CC(O)(C3)C2)c1cnc(N2CCc3cc(OCCC4CCOCC4)ccc32)nc1C(F)(F)F (single isomer, unassigned) [Compound I-97]
